# PMC8296573, “Synthesis and Biological Evaluation of Fingolimod Derivatives as Antibacterial Agents” (ACS Omega, 2021)
# Read-outs that look alike come from different tables or passages of the source.
# How the values were obtained:
# [1] = test system: S. aureus ATCC 25923; assay: Antibacterial activity, post-exposure on preformed 18-h-old biofilms; format: cell-based, Staphylococcus aureus; settings: ± SD; for inhibition at 25 µM / inhibition at 50 µM / inhibition at 100 µM / inhibition at 200 µM: Staphylococcus aureus; for inhibition at 25 µM: ATCC25923, 25 µM; for inhibition at 50 µM: ATCC25923, 50 µM; for inhibition at 100 µM: ATCC25923, 100 µM; for inhibition at 200 µM: ATCC25923, 200 µM
# How it was run: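 Compounds were applied to preformed 18-h biofilms after medium change and left 24 h. Read-outs: planktonic OD plus resazurin fluorescence (20 μM), biofilm metabolic activity by resazurin 30 min at 37 °C, then biomass by crystal violet absorbance at 595 nm after ethanol fixation.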
# [2] = test system: A. baumannii NCTC 13423; assay: Antibacterial activity, pre-exposure; format: cell-based, Acinetobacter baumannii; settings: for Average inhibition %, biofilms viability / Average inhibition %, planktonic cells viability / inhibition at 10 µM / inhibition at 15 µM / inhibition at 25 µM / inhibition at 50 µM: A. baumannii NCTC 13423, pre-exposure, ± SD; for inhibition at 10 µM / inhibition at 15 µM / inhibition at 25 µM / inhibition at 50 µM / MIC: Acinetobacter baumannii, NCTC13423
# How it was run: (§1)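 Pre-exposure format: compound and bacterial culture co-incubated 18 h, 37 °C, aerobic, 220 rpm. Planktonic: turbidity (OD) plus resazurin viability, 20 μM final. Biofilm: PBS wash, 20 μM resazurin, then ethanol fixation and crystal violet staining, A595.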
# [3] = test system: P. aeruginosa ATCC 9027; assay: Antibacterial activity, pre-exposure; format: cell-based, Pseudomonas aeruginosa; settings: for Average inhibition %, biofilms viability / Average inhibition %, planktonic cells viability / inhibition at 50 µM / inhibition at 100 µM / inhibition at 150 µM / inhibition at 200 µM: P. aeruginosa ATCC 9027, pre-exposure, ± SD; for inhibition at 50 µM / inhibition at 100 µM / inhibition at 150 µM / inhibition at 200 µM: Pseudomonas aeruginosa, ATCC9027
# How it was run: as §1
# [4] = test system: S. aureus ATCC 25923; assay: Antibacterial activity, pre-exposure (planktonic cells and biofilm formation); format: cell-based, Staphylococcus aureus; settings: for MIC / inhibition at 5 µM / inhibition at 10 µM / inhibition at 15 µM / inhibition at 25 µM: Staphylococcus aureus, ATCC25923; for inhibition at 5 µM / inhibition at 10 µM / inhibition at 15 µM / inhibition at 25 µM / Average inhibition %, biofilms viability / Average inhibition %, planktonic cells viability: pre-exposure, ± SD
# How it was run: as §1
# [5] = read-out: Average inhibition %, biofilms biomass
# [6] = read-out: Average inhibition %, planktonic cells turbidity
# [7] = 10 µM, read-out: Average inhibition %, biofilms biomass
# [8] = 10 µM, read-out: Average inhibition %, planktonic cells turbidity
# [9] = 15 µM, read-out: Average inhibition %, biofilms biomass
# [10] = 15 µM, read-out: Average inhibition %, planktonic cells turbidity
# [11] = 25 µM, read-out: Average inhibition %, biofilms biomass
# [12] = 25 µM, read-out: Average inhibition %, planktonic cells turbidity
# [13] = 50 µM, read-out: Average inhibition %, biofilms biomass
# [14] = 50 µM, read-out: Average inhibition %, planktonic cells turbidity
compound,measurement,setting,value
"CCCCCC/C=C/c1ccc(CCC(N)(CO)CO)cc1 [Compound 42, (E)-2-Amino-2-[4-(oct-1-en-1-yl)phenethyl]propane-1,3-diol]","Average inhibition %, biofilms viability",[1]; 25 µM,20 ± 6.1%
same,"Average inhibition %, planktonic cells viability",[1]; 25 µM,2.8 ± 5%
same,"Average inhibition %, biofilms viability",[1]; 50 µM,42 ± 16%
same,"Average inhibition %, planktonic cells viability",[1]; 50 µM,19.1 ± 18.9%
same,"Average inhibition %, biofilms viability",[1]; 100 µM,48.3 ± 2.3%
same,"Average inhibition %, planktonic cells viability",[1]; 100 µM,68.7 ± 18.2%
same,"Average inhibition %, biofilms viability",[1]; 200 µM,44.8 ± 10.4%
same,"Average inhibition %, planktonic cells viability",[1]; 200 µM,35.1 ± 44.8%
same,inhibition at 25 µM,[1]; [5],39 ± 2.5%
same,inhibition at 25 µM,[1]; [6],12 ± 9.6%
same,inhibition at 50 µM,[1]; [5],54.1 ± 1.9%
same,inhibition at 50 µM,[1]; [6],29.7 ± 16.3%
same,inhibition at 100 µM,[1]; [5],54.8 ± 5.9%
same,inhibition at 100 µM,[1]; [6],56.9 ± 19.5%
same,inhibition at 200 µM,[1]; [5],59.8 ± 21%
same,inhibition at 200 µM,[1]; [6],46.2 ± 27.3%
same,"Average inhibition %, biofilms viability",[2]; 10 µM,0.4 ± 0.3%
same,"Average inhibition %, planktonic cells viability",[2]; 10 µM,13.5 ± 3.1%
same,"Average inhibition %, biofilms viability",[2]; 15 µM,12.8 ± 7.2%
same,"Average inhibition %, planktonic cells viability",[2]; 15 µM,6 ± 6.6%
same,"Average inhibition %, biofilms viability",[2]; 25 µM,47.6 ± 37.1%
same,"Average inhibition %, planktonic cells viability",[2]; 25 µM,33.1 ± 52.5%
same,"Average inhibition %, biofilms viability",[2]; 50 µM,87.7 ± 9.8%
same,"Average inhibition %, planktonic cells viability",[2]; 50 µM,81 ± 27.7%
same,inhibition at 10 µM,[2]; [7],2.4 ± 4.3%
same,inhibition at 10 µM,[2]; [8],0%
same,inhibition at 15 µM,[2]; [9],6.2 ± 6%
same,inhibition at 15 µM,[2]; [10],0.6 ± 1%
same,inhibition at 25 µM,[2]; [11],18.2 ± 21.6%
same,inhibition at 25 µM,[2]; [12],40.8 ± 42.7%
same,inhibition at 50 µM,[2]; [13],67.2 ± 13.9%
same,inhibition at 50 µM,[2]; [14],83.1 ± 17.5%
same,MIC,"[2]; pre-exposure, Inactive = no activity up to 50 μM, > = some inhibition but no MIC reached, read-out: MIC A. baumannii NCTC 13423",> 50 µM
same,MIC,"[2]; supplementary molecular formula strings sheet, read-out: MIC (A. baumannii)",> 50 µM
same,"Average inhibition %, biofilms viability",[3]; 50 µM,3.9 ± 6.8%
same,"Average inhibition %, planktonic cells viability",[3]; 50 µM,24.8 ± 10.1%
same,"Average inhibition %, biofilms viability",[3]; 100 µM,1.5 ± 2.6%
same,"Average inhibition %, planktonic cells viability",[3]; 100 µM,15.1 ± 18%
same,"Average inhibition %, biofilms viability",[3]; 150 µM,0.9 ± 1.7%
same,"Average inhibition %, planktonic cells viability",[3]; 150 µM,18.9 ± 31%
same,"Average inhibition %, biofilms viability",[3]; 200 µM,0 ± 0%
same,"Average inhibition %, planktonic cells viability",[3]; 200 µM,27 ± 45%
same,inhibition at 50 µM,[3]; [13],30.1 ± 8.8%
same,inhibition at 50 µM,[3]; [14],16.3 ± 5.3%
same,inhibition at 100 µM,"[3]; 100 µM, read-out: Average inhibition %, biofilms biomass",30.3 ± 0.8%
same,inhibition at 100 µM,"[3]; 100 µM, read-out: Average inhibition %, planktonic cells turbidity",37.1 ± 13.5%
same,inhibition at 150 µM,"[3]; 150 µM, read-out: Average inhibition %, biofilms biomass",27.7 ± 2.1%
same,inhibition at 150 µM,"[3]; 150 µM, read-out: Average inhibition %, planktonic cells turbidity",45.1 ± 17.4%
same,inhibition at 200 µM,"[3]; 200 µM, read-out: Average inhibition %, biofilms biomass",36.2 ± 10.3%
same,inhibition at 200 µM,"[3]; 200 µM, read-out: Average inhibition %, planktonic cells turbidity",53.5 ± 14.1%
same,MIC P. aeruginosa ATCC 9027,"[3]; pre-exposure, Inactive = no activity up to 200 μM, > = some inhibition but no MIC reached",Inactive
same,MIC,"[4]; lowest concentration with no visible growth (>90% inhibition of turbidity and viability of planktonic cells), 18 h, read-out: MIC S. aureus ATCC 25923",15 to 25 µM
same,inhibition at 5 µM,"[4]; 5 µM, read-out: Average inhibition %, biofilms biomass",41 ± 12.1%
same,inhibition at 5 µM,"[4]; 5 µM, read-out: Average inhibition %, planktonic cells turbidity",18.8 ± 12.6%
same,inhibition at 10 µM,[4]; [7],62.5 ± 24.1%
same,inhibition at 10 µM,[4]; [8],53.3 ± 32.3%
same,inhibition at 15 µM,[4]; [9],80.5 ± 26.4%
same,inhibition at 15 µM,[4]; [10],84.6 ± 26.1%
same,inhibition at 25 µM,[4]; [11],95.1 ± 0.5%
same,inhibition at 25 µM,[4]; [12],99.4 ± 0.5%
same,MIC,[4]; read-out: MIC (S. aureus),15 to 25 µM
same,"Average inhibition %, biofilms viability",[4]; 5 µM,16.3 ± 4.8%
same,"Average inhibition %, planktonic cells viability",[4]; 5 µM,1.7 ± 3%
same,"Average inhibition %, biofilms viability",[4]; 10 µM,55.9 ± 31%
same,"Average inhibition %, planktonic cells viability",[4]; 10 µM,31.6 ± 54.9%
same,"Average inhibition %, biofilms viability",[4]; 15 µM,81.1 ± 32.3%
same,"Average inhibition %, planktonic cells viability",[4]; 15 µM,66.4 ± 57.5%
same,"Average inhibition %, biofilms viability",[4]; 25 µM,99.2 ± 0.8%
same,"Average inhibition %, planktonic cells viability",[4]; 25 µM,99.6 ± 0.2%
